The values below come from patent US20240383915A1, “OXAZEPINE COMPOUNDS AND USES THEREOF IN THE TREATMENT OF CANCER” (Genentech, Inc., priority 2021, published 2024).

One experiment concerns SW480 cells. The experiment is described as follows: SW480 proliferation assay. Format: cell-based. The following applies: Homo sapiens, SW480, SW480; read-out: SW480 Prolif IC50 (G12V).
In a further experiment the test system is PC-9 cells. The experiment is described as follows: PC9 proliferation assay. Format: cell-based, human. The following applies: Homo sapiens, PC-9, PC9; read-out: PC9 Prolif IC50 (G12V).
For a further experiment, the target named is KRas(G12V) (Homo sapiens (Human), UniProt P01116, G12V). Description: KRas(G12V) GDP HTRF (BODIPY-GDP exchange TR-FRET). The class given is biochemical. A general note: Time-resolved FRET reads energy transfer from a long-lived donor to a nearby acceptor.
Another experiment concerns the target KRas (Homo sapiens (Human), UniProt P01116). The experiment is described as follows: KRas GDP HTRF (BODIPY-GDP exchange TR-FRET). Format: biochemical. The method, boiled down:
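Inhibition of SOS1-mediated exchange of BODIPY-GDP on KRAS G12D, started with 3 nM recombinant human SOS1 and 300 nM BODIPY-GDP and read after 60 min. TR-FRET excitation 337 nm, ratio 520/490 nm ×10,000. IC50 from 4-parameter Hill fit of normalized data.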

KRas, sequence (P01116-2 other isoform, or with tags, fused parts or gaps): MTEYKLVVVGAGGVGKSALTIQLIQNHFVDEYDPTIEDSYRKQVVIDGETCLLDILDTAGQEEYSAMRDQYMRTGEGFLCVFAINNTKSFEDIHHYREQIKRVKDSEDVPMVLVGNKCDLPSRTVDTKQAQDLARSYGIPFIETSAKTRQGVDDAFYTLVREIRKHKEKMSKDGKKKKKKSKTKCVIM
KRas(G12V), sequence (P01116-2 other isoform, or with tags, fused parts or gaps G12V): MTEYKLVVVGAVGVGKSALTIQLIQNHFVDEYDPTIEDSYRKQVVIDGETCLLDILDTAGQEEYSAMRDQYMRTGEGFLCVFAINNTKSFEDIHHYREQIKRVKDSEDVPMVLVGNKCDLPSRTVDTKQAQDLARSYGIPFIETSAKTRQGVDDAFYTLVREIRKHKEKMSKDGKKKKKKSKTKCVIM

As a reminder, the IC50 is the concentration that inhibits the measured activity by half. Consider `COC(C)(C)COc1nc2c3c(c(Cl)c(-c4nc(N)cc(C)c4C(F)(F)F)c(F)c3n1)OCCN2[C@H](C)c1cccnc1N` (atropisomer, axis not shown) [Example 110a, 6-((R)-4-((R)-1-(2-aminopyridin-3-yl)ethyl)-8-chloro-10-fluoro-2-(2-methoxy-2-methylpropoxy)-5,6-dihydro-4H-[1,4]oxazepino[5,6,7-de]quinazolin-9-yl)-4-methyl-5-(trifluoromethyl)pyridin-2-amine], for which the half-inhibitory concentration (IC50) in the experiment with SW480 cells came to 98 nM; with PC-9 cells, 11000 nM.

As for `Cc1cc(N)nc(-c2c(Cl)c3c4c(nc(OC[C@@]56CCCN5C[C@H](F)C6)nc4c2F)N([C@H](C)c2ccnnc2N)CCO3)c1C(F)(F)F` (atropisomer, axis not shown) [Example 133c], the 50% inhibitory concentration (IC50) in the experiment on SW480 cells was found to be 25 nM; in the experiment on PC-9 cells it was 7100 nM.

Regarding `Cc1cc(N)nc(-c2c(Cl)c3c4c(nc(OCCN5CCOCC5)nc4c2F)N([C@H](C)c2cccnc2N)CCO3)c1C(F)(F)F` (atropisomer, axis not shown) [Example 138, 6-((R)-4-((R)-1-(2-aminopyridin-3-yl)ethyl)-8-chloro-10-fluoro-2-(2-morpholinoethoxy)-5,6-dihydro-4H-[1,4]oxazepino[5,6,7-de]quinazolin-9-yl)-4-methyl-5-(trifluoromethyl)pyridin-2-amine], the 50% inhibitory concentration (IC50) in the experiment with SW480 cells was determined as 77 nM; in the experiment with PC-9 cells, 4900 nM.

Consider `COC1(CCOc2nc3c4c(c(Cl)c(-c5nc(N)cc(C)c5C(F)(F)F)c(F)c4n2)OCCN3[C@H](C)c2cccnc2N)CCC1` (atropisomer, axis not shown) [Example 150, 6-((R)-4-((R)-1-(2-aminopyridin-3-yl)ethyl)-8-chloro-10-fluoro-2-(2-(1-methoxycyclobutyl)ethoxy)-5,6-dihydro-4H-[1,4]oxazepino[5,6,7-de]quinazolin-9-yl)-4-methyl-5-(trifluoromethyl)pyridin-2-amine], for which the values for the IC50 in the experiment on SW480 cells and with PC-9 cells were 790 nM and 8900 nM, respectively.

With `Cc1cc(N)nc(-c2c(Cl)c3c4c(nc(OC[C@H]5CC[C@@H]6CO[C@H](C)CN56)nc4c2F)N([C@H](C)c2cccnc2N)CCO3)c1C(F)(F)F` (atropisomer, axis not shown; (aR)) [Example 93d, 6-((R)-4-((R)-1-(2-aminopyridin-3-yl)ethyl)-8-chloro-10-fluoro-2-(((3R,6R,8aR)-3-methylhexahydro-1H-pyrrolo[2,1-c][1,4]oxazin-6-yl)methoxy)-5,6-dihydro-4H-[1,4]oxazepino[5,6,7-de]quinazolin-9-yl)-4-methyl-5-(trifluoromethyl)pyridin-2-amine], the half-inhibitory concentration (IC50) was 1.1 nM in the experiment with SW480 cells, 0.07 nM against KRas(G12V) and 0.0849 nM against KRas.

On to `Cc1c(F)c(N)cc(-c2c(Cl)c3c4c(nc(OC[C@@]56CCCN5C[C@H](F)C6)nc4c2F)N([C@H](C)c2cccnc2N)CCO3)c1C(F)(F)F` (atropisomer, axis not shown; (aS)) [Example 76a, 3-((R)-1-(9-((S)-5-amino-4-fluoro-3-methyl-2-(trifluoromethyl)phenyl)-8-chloro-10-fluoro-2-(((2R,7aS)-2-fluorotetrahydro-1H-pyrrolizin-7a(5H)-yl)methoxy)-5,6-dihydro-4H-[1,4]oxazepino[5,6,7-de]quinazolin-4-yl)ethyl)pyridin-2-amine], for which the values for the IC50 with SW480 cells, on KRas(G12V) and at KRas were 1.9 nM, 0.09 nM and 0.102 nM, respectively.

In the case of `Cc1cc(N)nc(-c2c(Cl)c3c4c(nc(OC[C@@H]5CC[C@H]6COCCN65)nc4c2F)N([C@H](C)c2nccnc2N)CCO3)c1C(F)(F)F` (atropisomer, axis not shown; (aS)) [Example 104a, 3-((R)-1-((R)-9-(6-amino-4-methyl-3-(trifluoromethyl)pyridin-2-yl)-8-chloro-10-fluoro-2-(((6S,8aS)-hexahydro-1H-pyrrolo[2,1-c][1,4]oxazin-6-yl)methoxy)-5,6-dihydro-4H-[1,4]oxazepino[5,6,7-de]quinazolin-4-yl)ethyl)pyrazin-2-amine], the IC50 in the experiment on SW480 cells amounted to 12 nM; on KRas(G12V) it was 0.15 nM; on KRas it was 0.447 nM.

Take `Cc1cc(N)nc(-c2cc3ncnc4c3c(c2Cl)OCCN4C)c1C(F)(F)F` [Example 24, 6-(8-chloro-4-methyl-5,6-dihydro-4H-[1,4]oxazepino[5,6,7-de]quinazolin-9-yl)-4-methyl-5-(trifluoromethyl)pyridin-2-amine]: the results for the half-inhibitory concentration (IC50) against KRas(G12V), against KRas and in the experiment with PC-9 cells were 4400 nM, 30000 nM and 20000 nM, respectively.

Take `Cc1cc(N)nc(-c2cc3ncnc4c3c(c2Cl)OCCN4Cc2cc(Cl)cnc2N)c1C(F)(F)F` [Example 52, 6-[13-[(2-amino-5-chloro-3-pyridyl)methyl]-8-chloro-10-oxa-2,4,13-triazatricyclo[7.4.1.05,14]tetradeca-1,3,5(14),6,8-pentaen-7-yl]-4-methyl-5-(trifluoromethyl)pyridin-2-amine]: the concentration for half-maximal inhibition (IC50) against KRas(G12V) amounted to 2400 nM; against KRas it was 9600 nM.

As to `Cc1cc(N)nc(-c2cc3nc(OCC4(N(C)C)COC4)nc4c3c(c2Cl)OCCN4Cc2cccnc2N)c1C(F)(F)F` [Example 54, 6-(4-((2-aminopyridin-3-yl)methyl)-8-chloro-2-((3-(dimethylamino)oxetan-3-yl)methoxy)-5,6-dihydro-4H-[1,4]oxazepino[5,6,7-de]quinazolin-9-yl)-4-methyl-5-(trifluoromethyl)pyridin-2-amine], the IC50 on KRas(G12V) came out at 41 nM; at KRas, 310 nM.

`Cc1cc(N)nc(-c2cc3nc(OCC4(C)CS(=O)(=O)C4)nc4c3c(c2Cl)OCCN4Cc2cccnc2N)c1C(F)(F)F` [Example 55, 3-(((9-(6-amino-4-methyl-3-(trifluoromethyl)pyridin-2-yl)-4-((2-aminopyridin-3-yl)methyl)-8-chloro-5,6-dihydro-4H-[1,4]oxazepino[5,6,7-de]quinazolin-2-yl)oxy)methyl)-3-methylthietane 1,1-dioxide]: the IC50 is 19 nM at KRas(G12V) and 130 nM against KRas.

As to `Cc1cc(N)nc(-c2cc3ncnc4c3c(c2Cl)OCCN4Cc2ccnnc2N)c1C(F)(F)F` [Example 56, 4-((9-(6-amino-4-methyl-3-(trifluoromethyl)pyridin-2-yl)-8-chloro-5,6-dihydro-4H-[1,4]oxazepino[5,6,7-de]quinazolin-4-yl)methyl)pyridazin-3-amine], the results for the IC50 against KRas(G12V) and against KRas were 22 nM and 160 nM, respectively.

In the case of `Cc1cc(N)nc(-c2cc3ncnc4c3c(c2Cl)OCCN4Cc2c(C(F)F)ccnc2N)c1C(F)(F)F` [Example 57, 6-(4-((2-amino-4-(difluoromethyl)pyridin-3-yl)methyl)-8-chloro-5,6-dihydro-4H-[1,4]oxazepino[5,6,7-de]quinazolin-9-yl)-4-methyl-5-(trifluoromethyl)pyridin-2-amine], the half-maximal inhibitory concentration (IC50) on KRas(G12V) was 270 nM; on KRas, 2000 nM.

Take `CNc1cnc(N)c([C@@H](C)N2CCOc3c(Cl)c(-c4nc(N)cc(C)c4C(F)(F)F)cc4ncnc2c34)c1` [Example 58, (R)-3-(1-(9-(6-amino-4-methyl-3-(trifluoromethyl)pyridin-2-yl)-8-chloro-5,6-dihydro-4H-[1,4]oxazepino[5,6,7-de]quinazolin-4-yl)ethyl)-N5-methylpyridine-2,5-diamine]: the IC50 against KRas(G12V) stood at 18 nM; at KRas it was 34 nM.

For `Cc1cc(N)nc(-c2c(Cl)c3c4c(nc(OC(C)[C@@H]5CC(F)(F)CN5C)nc4c2F)N([C@H](C)c2cccnc2N)CCO3)c1C(F)(F)F` (stereo partly drawn) [Example 71, 6-((R)-4-((R)-1-(2-aminopyridin-3-yl)ethyl)-8-chloro-2-((S)-1-((S)-4,4-difluoro-1-methylpyrrolidin-2-yl)ethoxy)-10-fluoro-5,6-dihydro-4H-[1,4]oxazepino[5,6,7-de]quinazolin-9-yl)-4-methyl-5-(trifluoromethyl)pyridin-2-amine], the half-maximal inhibitory concentration (IC50) was 0.53 nM on KRas(G12V) and 6.61 nM at KRas.

`Cc1cc(N)nc(-c2c(Cl)c3c4c(nc(OCCN5C6CCC5CN(C)C6)nc4c2F)N([C@H](C)c2cccnc2N)CCO3)c1C(F)(F)F` [Example 94, 6-((9R)-4-((R)-1-(2-aminopyridin-3-yl)ethyl)-8-chloro-10-fluoro-2-(2-(3-methyl-3,8-diazabicyclo[3.2.1]octan-8-yl)ethoxy)-5,6-dihydro-4H-[1,4]oxazepino[5,6,7-de]quinazolin-9-yl)-4-methyl-5-(trifluoromethyl)pyridin-2-amine]: the IC50 against KRas(G12V) was determined as 0.07 nM; against KRas, 0.175 nM.

With `Cc1cc(N)nc(-c2c(Cl)c3c4c(nc(OCC56C[C@H](F)CN5C[C@H](F)C6)nc4c2F)N([C@H](C)c2cccnc2N)CCO3)c1C(F)(F)F` (stereo partly drawn) [Example 98b, 6-((9R)-4-((R)-1-(2-aminopyridin-3-yl)ethyl)-8-chloro-2-(((2R,6S)-2,6-difluorotetrahydro-1H-pyrrolizin-7a(5H)-yl)methoxy)-10-fluoro-5,6-dihydro-4H-[1,4]oxazepino[5,6,7-de]quinazolin-9-yl)-4-methyl-5-(trifluoromethyl)pyridin-2-amine], the IC50 stood at 0.1 nM against KRas(G12V) and 0.125 nM at KRas.

For the compound `Cc1cc(N)nc(-c2c(Cl)c3c4c(nc(OC[C@@]56CCCN5C[C@H](F)C6)nc4c2F)N([C@H](C)c2cc(Cl)cnc2N)CCO3)c1C(F)(F)F` [Example 131, 6-(4-((R)-1-(2-amino-5-chloropyridin-3-yl)ethyl)-8-chloro-10-fluoro-2-(((2R,7aS)-2-fluorotetrahydro-1H-pyrrolizin-7a(5H)-yl)methoxy)-5,6-dihydro-4H-[1,4]oxazepino[5,6,7-de]quinazolin-9-yl)-4-methyl-5-(trifluoromethyl)pyridin-2-amine], the IC50 against KRas(G12V) came out at 0.14 nM; against KRas, 0.253 nM.
